Active and inactive are the calls of the source. The calls are words filed in the database; no cut-off is given here.
Experiments:
[1] = target: Glucagon-like peptide 1 receptor (Homo sapiens) (UniProt P43220); assay: Positive allosteric modulation of human GLP-1 receptor in HEK cells expressing luciferase2P assessed as fold increase in GLP-1R activity incubated for 4 hrs in presence of GLP-1 by luciferase based assay relative to GLP-1 alone; type: cell-based; conditions: filed as positive allosteric modulator
[2] = target: Glucagon-like peptide 1 receptor (Homo sapiens) (UniProt P43220); assay: Positive allosteric modulation of human GLP-1 receptor in HEK cells expressing luciferase2P assessed as cAMP level incubated for 4 hrs by luciferase based assay relative to GLP-1; type: functional, cell-based; set-up: concentration or dose not given beside the values; conditions: filed as positive allosteric modulator
[3] = target: Glucagon-like peptide 1 receptor (Homo sapiens) (UniProt P43220); assay: Positive allosteric modulation of human GLP-1 receptor in HEK cells expressing luciferase2P incubated for 4 hrs in presence of 10 nM of GLP-1 by luciferase based assay; type: cell-based; conditions: filed as positive allosteric modulator, dose 0.78-100 µM
[4] = Induction of glucose dependent insulin secretion in rat INS-1 832/13 cells expressing GLP-1R assessed as fold increase at 5 uM starved for 2 hrs in KRB buffer followed by 16.7 mM of glucose addition and measured after 90 mins in presence of GLP-1 by ELISA; type: functional, INS1(832/13); conditions: 1.5 h
INS1(832/13) = assay: Induction of glucose dependent insulin secretion in rat INS-1 832/13 cells expressing GLP-1R at 5 uM starved for 2 hrs in KRB buffer followed by glucose addition and measured after 90 mins by ELISA; type: functional, cell-based
[5] = target: Glucagon-like peptide 1 receptor (Homo sapiens) (UniProt P43220); assay: Positive allosteric modulation of human GLP-1 receptor in HEK cells expressing luciferase2P at 5 uM incubated for 4 hrs in presence of varying concentrations of GLP-1 by luciferase based assay; type: cell-based; conditions: filed as positive allosteric modulator
Mus musculus [6] = assay: Anti-diabetic activity against overnight-fasted male CD1 mouse assessed as reduction in blood glucose concentration at 5 to 30 mg/kg, ip preadministered with compound for 45 mins followed by 2.5 g/kg dextrose addition and measured after 60 mins by iGTT test; type: functional, organism-based; conditions: dose 5-30 mg/kg, time 105.0 min
Mus musculus [7] = assay: Anti-diabetic activity against overnight-fasted male CD1 mouse assessed as reduction in blood glucose concentration at 5 mg/kg, ip preadministered with compound for 45 mins followed by 2.5 g/kg dextrose addition and measured after 60 mins by iGTT test; type: functional, organism-based; conditions: time 105.0 min
Mus musculus [8] = assay: Anti-diabetic activity against overnight-fasted male CD1 mouse assessed as reduction in blood glucose concentration at 10 mg/kg, ip preadministered with compound for 45 mins followed by 2.5 g/kg dextrose addition and measured after 60 mins in the presence of sitagliptin by iGTT test relative to control; type: functional; set-up: scale not given: the % may be the effect or the level left; conditions: time 105 min, 1.75 h
[9] = target: T1, Vasoactive intestinal polypeptide receptor 1 (Homo sapiens) (UniProt P32241); assay: Positive allosteric modulation of VIPR1 (unknown origin) transfected in HEK cells expressing luciferase2P assessed as increase in luciferase activity; type: cell-based; conditions: filed as positive allosteric modulator
T1 sequence (whole entry): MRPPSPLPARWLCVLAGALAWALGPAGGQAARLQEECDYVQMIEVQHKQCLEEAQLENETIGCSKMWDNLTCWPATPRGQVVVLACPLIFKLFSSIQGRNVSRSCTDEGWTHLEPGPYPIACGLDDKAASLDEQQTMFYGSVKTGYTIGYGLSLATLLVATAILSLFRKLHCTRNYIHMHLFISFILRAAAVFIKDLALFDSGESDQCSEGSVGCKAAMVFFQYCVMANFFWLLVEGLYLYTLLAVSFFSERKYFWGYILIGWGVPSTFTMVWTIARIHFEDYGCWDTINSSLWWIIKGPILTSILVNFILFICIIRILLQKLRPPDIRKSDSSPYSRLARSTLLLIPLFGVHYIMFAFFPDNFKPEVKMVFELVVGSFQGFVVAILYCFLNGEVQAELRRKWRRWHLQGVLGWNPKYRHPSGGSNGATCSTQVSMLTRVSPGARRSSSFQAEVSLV

Mus musculus [10] = assay: Anti-diabetic activity against overnight-fasted male CD1 mouse assessed as reduction in blood glucose concentration at 10 to 30 mg/kg, ip preadministered with compound for 45 mins followed by 2.5 g/kg dextrose addition and measured after 60 mins by iGTT test relative to control; type: functional; set-up: scale not given: the % may be the effect or the level left; conditions: dose 10-30 mg/kg, time 105 min, 1.75 h
[11] = target: T2, Gastric inhibitory polypeptide receptor (Homo sapiens) (UniProt P48546); assay: Positive allosteric modulation of GIPR (unknown origin) transfected in HEK cells expressing luciferase2P assessed as increase in luciferase activity; type: cell-based; conditions: filed as positive allosteric modulator
T2 sequence (whole entry): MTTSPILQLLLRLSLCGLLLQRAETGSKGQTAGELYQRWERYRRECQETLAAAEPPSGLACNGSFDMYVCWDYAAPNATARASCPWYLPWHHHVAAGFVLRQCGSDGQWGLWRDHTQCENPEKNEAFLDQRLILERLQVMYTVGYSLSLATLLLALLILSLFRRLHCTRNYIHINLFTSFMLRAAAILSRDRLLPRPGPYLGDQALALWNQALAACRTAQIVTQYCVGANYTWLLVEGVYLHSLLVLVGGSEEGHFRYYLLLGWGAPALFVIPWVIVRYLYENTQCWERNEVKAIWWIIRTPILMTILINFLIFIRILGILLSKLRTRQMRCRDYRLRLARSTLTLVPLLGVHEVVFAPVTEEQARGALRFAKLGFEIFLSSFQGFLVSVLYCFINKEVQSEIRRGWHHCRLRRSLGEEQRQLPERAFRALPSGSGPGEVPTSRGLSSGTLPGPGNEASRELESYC

Mus musculus [12] = assay: Anti-diabetic activity against overnight-fasted male CD1 mouse assessed as reduction in blood glucose concentration at 10 to 30 mg/kg, ip preadministered with compound for 45 mins followed by 2.5 g/kg dextrose addition and measured after 30 mins by iGTT test; type: functional, organism-based; conditions: dose 10-30 mg/kg, time 75.0 min
Mus musculus [13] = assay: Anti-diabetic activity against overnight-fasted male CD1 mouse assessed as reduction in blood glucose concentration at 10 mg/kg, ip preadministered with compound for 45 mins followed by 2.5 g/kg dextrose addition and measured after 60 mins by iGTT test; type: functional, organism-based; conditions: time 105.0 min
[14] = target: Glucagon receptor (Homo sapiens) (UniProt P47871); assay: Positive allosteric modulation of glucagon receptor (unknown origin) transfected in HEK cells expressing luciferase2P assessed as increase in luciferase activity; type: cell-based; conditions: filed as positive allosteric modulator
Chain of Glucagon receptor (Homo sapiens) (P47871 whole entry): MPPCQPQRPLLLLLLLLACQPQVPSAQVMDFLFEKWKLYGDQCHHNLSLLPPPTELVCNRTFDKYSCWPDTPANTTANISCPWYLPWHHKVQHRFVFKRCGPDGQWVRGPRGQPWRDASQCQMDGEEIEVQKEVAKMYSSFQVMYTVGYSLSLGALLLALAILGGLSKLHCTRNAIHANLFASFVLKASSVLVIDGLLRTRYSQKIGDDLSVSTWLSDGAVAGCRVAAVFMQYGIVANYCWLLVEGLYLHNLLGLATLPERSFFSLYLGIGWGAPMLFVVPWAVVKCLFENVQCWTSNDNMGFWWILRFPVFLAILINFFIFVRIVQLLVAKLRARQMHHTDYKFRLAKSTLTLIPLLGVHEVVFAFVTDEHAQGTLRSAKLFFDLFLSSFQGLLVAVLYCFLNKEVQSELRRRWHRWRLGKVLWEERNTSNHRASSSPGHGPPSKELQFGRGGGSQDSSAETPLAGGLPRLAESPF

Chain of Glucagon-like peptide 1 receptor (Homo sapiens) (P43220 whole entry): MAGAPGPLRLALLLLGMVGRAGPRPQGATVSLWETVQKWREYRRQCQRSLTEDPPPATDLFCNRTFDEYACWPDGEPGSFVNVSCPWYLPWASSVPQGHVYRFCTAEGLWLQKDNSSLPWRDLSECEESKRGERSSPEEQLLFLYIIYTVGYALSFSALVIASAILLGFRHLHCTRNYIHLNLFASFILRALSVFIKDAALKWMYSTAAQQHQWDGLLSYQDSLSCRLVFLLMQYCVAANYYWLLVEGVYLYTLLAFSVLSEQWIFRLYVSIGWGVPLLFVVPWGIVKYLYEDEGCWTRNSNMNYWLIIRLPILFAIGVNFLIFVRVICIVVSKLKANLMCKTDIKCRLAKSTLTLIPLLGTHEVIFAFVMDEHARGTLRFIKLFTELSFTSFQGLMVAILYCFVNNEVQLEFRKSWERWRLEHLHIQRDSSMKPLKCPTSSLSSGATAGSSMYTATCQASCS

| Structure (SMILES) | fold change (FC) [1] | Activity [2] | other results |
| --- | --- | --- | --- |
| CCOC(=O)c1c(N)sc2c1CCN(C1CC1)C2 | > 2 | 88.3% | – |
| CCOC(=O)c1c(N)sc2c1CCC(C)C2 (racemic) | > 2 | 159% | – |
| CCOC(=O)c1c(N)sc2c1CCN(C(=O)OC(C)(C)C)C2 | > 2 | 164% | – |
| CCOC(=O)c1c(N)sc2c1CCC(C)(C)C2 | > 2 | 164% | – |
| Cc1ccc(C(=O)c2c(N)sc3c2CCOC3)cc1 | > 2 | 118% | – |
| Nc1sc2c(c1C(=O)c1ccc(Cl)cc1)CCSC2 | > 2 | 112% | – |
| CCCC1CCc2c(sc(N)c2C(=O)OCC)C1 (racemic) | > 2 | 157% | – |
| CCOC(=O)c1c(N)sc2c1CCOC2 | > 2 | 86.5% | – |
| CC1CCc2c(sc(N)c2C(=O)c2ccc(Cl)cc2)C1 (racemic) | > 2 | 128% | – |
| CCOC(=O)c1c(N)sc2c1CCN(C)C2 | > 2 | 75.7% | – |
| Cc1ccc(C(=O)c2c(N)sc3c2CCSC3)cc1 | > 2 | 92.5% | – |
| CCOC(=O)c1c(N)sc2c1C(C)CCC2 (racemic) | > 2 | 82% | – |
| CCOC(=O)c1c(N)sc2c1CCC(C(C)(C)C)C2 (racemic) | > 2 | 195% | – |
| CCOC(=O)c1c(N)sc2c1CCC(C(C)C)C2 (racemic) | > 2 | 247% | – |
| CCOC(=O)c1c(N)sc2c1CCSC2 | > 2 | 192% | – |
| C=CCOC(=O)N1CCc2c(sc(N)c2C(=O)OCC)C1 | > 2 | 232% | – |
| CCOC(=O)c1c(N)sc2c1CCN(C(C)=O)C2 | > 2 | 147% | – |
| Nc1sc2c(c1C(=O)c1ccc(Cl)cc1)CCOC2 | > 2 | 177% | – |
| CCOC(=O)c1c(N)sc2c1CCC(C(F)(F)F)C2 (racemic) | > 2 | 183% | – |
| Cc1ccc(C(=O)c2c(N)sc3c2CCC(C)(C)C3)cc1 | > 2 | 268% | Activity (Mus musculus [6]): Active; Activity (Mus musculus [7]): Active; Activity [3]: Dose-Dependent Effect; Activity (Mus musculus [8]): ~75%; Activity [9]: Active; Activity (Mus musculus [10]): 50%; Activity [11]: Active; fold change (FC) [4]: >2; Activity (Mus musculus [12]): Active; Activity (INS1(832/13)): Active; Activity (Mus musculus [13]): Active; Activity [14]: Active; Activity [5]: Active |
| CCOC(=O)c1c(N)sc2c1CCN(C(C)C)C2 | > 2 | 82.2% | – |
| CCOC(=O)c1c(N)sc2c1CCN(CC)C2 | > 2 | 94.3% | – |
| CCOC(=O)c1c(N)sc2c1CC(C)(C)CC2 | > 2 | 133% | – |
| CCOC(=O)c1c(N)sc2c1CCN(C(=O)OCC)C2 | > 2 | 258% | – |

Continued, in another order:

| fold change (FC) [1] | Activity [2] | Structure (SMILES) | other results |
| --- | --- | --- | --- |
| > 2 | 196% | CC(=O)N1CCc2c(sc(N)c2C(=O)c2ccc(C)cc2)C1 | – |
| > 2 | 239% | CC(=O)N1CCc2c(sc(N)c2C(=O)c2ccc(Cl)cc2)C1 | – |
| > 2 | 233% | CCOC(=O)N1CCc2c(sc(N)c2C(=O)c2ccccc2)C1 | Activity [3]: Dose-Dependent Effect; fold change (FC) [4]: >2; Activity (INS1(832/13)): Active; Activity [5]: Active |
| > 2 | 131% | Nc1sc2c(c1C(=O)c1ccccc1)CCN(S(=O)(=O)C1CC1)C2 | – |
| > 2 | 98.1% | Cc1ccc(C(=O)c2c(N)sc3c2CCN(C(=O)OCc2ccccc2)C3)cc1 | – |
| > 2 | 142% | CS(=O)(=O)N1CCc2c(sc(N)c2C(=O)c2ccc(Cl)cc2)C1 | – |
| > 2 | 99.3% | CCN1CCc2c(sc(N)c2C(=O)c2ccc(C)cc2)C1 | – |
| > 2 | 242% | Cc1ccc(C(=O)c2c(N)sc3c2CCC(C)C3)cc1 (racemic) | Activity [3]: Dose-Dependent Effect; fold change (FC) [4]: >2; Activity (INS1(832/13)): Active; Activity [5]: Active |
| > 2 | 231% | CC(=O)N1CCc2c(sc(N)c2C(=O)c2ccccc2)C1 | – |
| > 2 | 222% | CCOC(=O)N1CCc2c(sc(N)c2C(=O)c2ccc(Cl)cc2)C1 | – |
| > 2 | 184% | CCOC(=O)c1c(N)sc2c1CCN(C(=O)OCc1ccccc1)C2 | – |
| > 2 | 155% | Nc1sc2c(c1C(=O)c1ccc(Cl)cc1)CCN(C(=O)OCc1ccccc1)C2 | – |
| > 2 | 98.1% | CCOC(=O)N1CCc2c(sc(N)c2C(=O)c2ccc(C)cc2)C1 | – |
| > 2 | 106% | CCOC(=O)c1c(N)sc2c1CCN(S(=O)(=O)C1CC1)C2 | – |
| > 2 | 124% | CN1CCc2c(sc(N)c2C(=O)c2ccc(Cl)cc2)C1 | – |
| > 2 | 247% | C=CCOC(=O)N1CCc2c(sc(N)c2C(=O)c2ccccc2)C1 | Activity [3]: Dose-Dependent Effect; fold change (FC) [4]: >2; Activity (INS1(832/13)): Active; Activity [5]: Active |
